Test results as given in patent US4447440A, “Sulphenamides-containing lipoxygenase inhibiting agents and their use in pharmaceutical compositions” (Bayer Aktiengesellschaft, priority 1981, dated 1984).

Assays:
[1] = test system: lipoxygenase / cyclooxygenase; settings: prior art; cited from earlier work
platelet lipoxygenase = biological target: T1, platelet lipoxygenase (Homo sapiens, UniProt P18054); test: Inhibition of the platelet lipoxygenase (synthesis of HETE), metabolism of radioactively labelled arachidonic acid by washed human platelets; format: cell-based; settings: in vitro
T1 construct: metabolism of radioactively labelled arachidonic acid by washed human platelets; endogenous in cells; host or cells: washed human platelets
T1 sequence (P18054 1-663): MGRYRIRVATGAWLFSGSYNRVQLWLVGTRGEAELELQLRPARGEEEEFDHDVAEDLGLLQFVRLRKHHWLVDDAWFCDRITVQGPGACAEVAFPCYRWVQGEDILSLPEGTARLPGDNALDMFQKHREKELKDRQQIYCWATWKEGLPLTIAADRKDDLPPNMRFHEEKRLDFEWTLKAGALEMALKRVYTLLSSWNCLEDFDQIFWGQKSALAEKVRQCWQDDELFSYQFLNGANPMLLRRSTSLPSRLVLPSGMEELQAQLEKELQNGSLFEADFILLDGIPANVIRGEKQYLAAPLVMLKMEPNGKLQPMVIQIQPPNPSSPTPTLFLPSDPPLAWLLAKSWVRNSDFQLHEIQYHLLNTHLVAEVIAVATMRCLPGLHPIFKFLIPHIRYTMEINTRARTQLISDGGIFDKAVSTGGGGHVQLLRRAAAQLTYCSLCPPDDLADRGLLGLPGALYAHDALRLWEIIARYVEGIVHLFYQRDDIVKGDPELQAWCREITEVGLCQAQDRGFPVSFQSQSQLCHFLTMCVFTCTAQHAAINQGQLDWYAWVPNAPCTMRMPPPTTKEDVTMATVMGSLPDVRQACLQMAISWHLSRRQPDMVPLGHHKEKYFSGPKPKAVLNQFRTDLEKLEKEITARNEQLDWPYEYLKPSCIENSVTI
Description: In this test method, the metabolism of radioactively labelled arachidonic acid by washed human platelets is investigated. In this in vitro test, the radioactively labelled metabolites are extracted from the reaction mixture and separated by thin layer chromatography. The autoradiogram is evaluated on the thin layer scanner. Under these test conditions, the labelled metabolites are separated from the unreacted arachidonic acid and can subsequently be quantitatively evaluated. The distribution of the radioactivity in the cyclooxygenase products, formed during metabolism, thomboxane B2 (TXB2) and 12-hydroxy-5,8,10-heptadecatrienic acid (HHT) and the lipoxygenase product 12-hydroxy-5,8,11,14-eicosatetraenoic acid (HETE) as influenced by the inhibitors, gives a measure of the inhibition of the enzymes.
The inhibition of lipoxygenase by the sulphenamides which can be used according to the invention can be measured by the inhibition of the synthesis of HETE. […] Inhibition of the platelet lipoxygenase (synthesis of HETE)

leucocytes (migration) = test: Inhibition of the migration of leucocytes, sponge soaked in active compound introduced under the dorsal skin of rats; format: in vivo; settings: rat, local dose 10 mg/rat; for inhibition in vivo at 10 mg: Leucocyte, read-out: Inhibition of the migration of leucocytes (control = 0%)
Description: The sulphenamides used according to the present invention are also active in vivo. […] Table 2 which follows summarises the activities of some illustrative sulphenamides after local administration, by introduction of a piece of sponge soaked in the active compound under the dorsal skin of rats.

| Structure (SMILES) | Minimum effective inhibitory concentration (at least 50% inhibition) (platelet lipoxygenase) | inhibition in vivo at 10 mg (leucocytes (migration)) [%] | further results |
| --- | --- | --- | --- |
| CCCCCC#CCC#CCC#CCC#CCCCC(=O)O [5,8,11,14-eicosatetrainoic acid] |  |  | activity of known inhibitors of lipoxygenase, in words [1]: either simultaneously active as inhibitors of cyclooxygenase, or only active at very high concentrations |
| Nc1ncn(Sc2ccccc2)n1 [Example 2] | 10^-6 g/ml | 70 |  |
| Nc1ncn(Sc2ccc(Cl)cc2)n1 [Example 3] | 10^-6 g/ml |  |  |
| Cc1ccc(Sn2cnc(N)n2)cc1 [Example 4] |  | 61 |  |
| Clc1ccc(SNc2nnc(N3CCOCC3)s2)cc1 [Example 5] |  | 22 |  |
| c1ccc(CNSc2nnnn2-c2ccccc2)cc1 [Example 10] |  | 26 |  |
| c1ccc(-n2nnnc2SNc2nc[nH]n2)cc1 [Example 11] |  | 22 |  |
| CC1(C)OC(C)(C)N(Sc2ccc(Cl)cc2)C1=O [Example 15] |  | 47 |  |
| Cc1ccc(SN2C(=O)C(C)(C)OC2(C)C)cc1 [Example 16] |  | 40 |  |
| O=c1n(Sc2ccccc2)c(=O)n2c(=O)n(Sc3ccccc3)c(=O)n12 [Example 18] | 3e-06 g/mL | 41 |  |
| O=C1CCCN1Sc1ccc(Cl)c(C(F)(F)F)c1 [Example 20] |  | 64 |  |
| O=C1CCCN1Sc1cc(C(F)(F)F)ccc1Cl [Example 21] |  | 44 |  |
| COC(=O)c1ccc(SN2CCCC2=O)cc1 [Example 22] |  | 64 |  |
| O=C1c2ccccc2C(=O)N1Sc1ccccc1 [Example 29] | 10^-6 g/ml | 48 |  |
| O=C1c2ccccc2C(=O)N1Sc1ccc(Cl)cc1 [Example 30] | 3e-06 g/mL |  |  |
| Cc1ccc(SN2C(=O)c3ccccc3C2=O)cc1 [Example 31] | 3e-06 g/mL | 43 |  |
| O=C1c2ccccc2C(=O)N1SC1CCCCC1 [Example 32] | 3e-06 g/mL | 38 |  |
| CC(C)(C)c1ccc(SN2C(=O)c3ccccc3C2=O)cc1 [Example 35] | 3e-06 g/mL |  |  |
| O=C1c2ccc([N+](=O)[O-])cc2C(=O)N1Sc1ccccc1 [Example 36] |  | 64 |  |
| O=C1c2ccc([N+](=O)[O-])cc2C(=O)N1Sc1ccc(Cl)cc1 [Example 38] |  | 56 |  |
| O=C1c2ccc([N+](=O)[O-])cc2C(=O)N1Sc1ccccc1 [Example 39] | 10^-6 g/ml |  |  |
| O=C1c2ccc([N+](=O)[O-])cc2C(=O)N1Sc1ccc(Cl)cc1 [Example 40] | 3e-06 g/mL |  | Inhibition of the migration of leucocytes (control = 0%) (leucocytes (migration)): 41% |
| O=C1c2c(Cl)c(Cl)c(Cl)c(Cl)c2C(=O)N1Sc1ccccc1 [Example 42] | 3e-06 g/mL |  |  |

| Structure (SMILES) | Minimum effective inhibitory concentration (at least 50% inhibition) (platelet lipoxygenase) | inhibition in vivo at 10 mg (leucocytes (migration)) [%] | further results |
| --- | --- | --- | --- |
| CC(C)(C)c1ccc(SN2C(=O)c3c(Cl)c(Cl)c(Cl)c(Cl)c3C2=O)cc1 [Example 43] | 3e-06 g/mL |  |  |
| O=c1c2cc3c(=O)n(Sc4ccccc4)c(=O)c3cc2c(=O)n1Sc1ccccc1 [Example 45] |  | 40 |  |
| O=C1c2cccc3cccc(c23)C(=O)N1Sc1ccccc1 [Example 47] |  | 21 |  |
| O=C1CCCN1Sc1ccccc1 [Example 52] | 10^-6 g/ml | 76 |  |
| O=C1CCCN1Sc1ccc(Cl)cc1 [Example 53] | 10^-6 g/ml |  |  |
| CC(C)(C)c1ccc(SN2CCCC2=O)cc1 [Example 54] | 10^-6 g/ml |  |  |
| O=C1CCCCCN1Sc1ccccc1 [Example 55] | 10^-6 g/ml | 78 |  |
| O=C1CCCCCN1Sc1ccc(Cl)cc1 [Example 56] | 3e-06 g/mL | 86 |  |
| CC(C)(C)c1ccc(SN2CCCCCC2=O)cc1 [Example 57] | 10^-5 g/ml |  |  |
| O=C1CCCCCCCCCCN1Sc1ccccc1 [Example 58] |  | 78 |  |
| O=C1c2ccccc2S(=O)(=O)N1Sc1ccccc1 [Example 60] | 3e-06 g/mL |  |  |
| O=C1c2ccccc2S(=O)(=O)N1Sc1ccc(Cl)cc1 [Example 61] | 10^-6 g/ml |  |  |
| CC(C)(C)c1ccc(SN2C(=O)c3ccccc3S2(=O)=O)cc1 [Example 62] | 3e-06 g/mL |  |  |
| O=C1C(=O)N(Sc2ccccc2)c2ccccc21 [Example 68] | 3e-06 g/mL |  |  |
| O=C1C(=O)N(Sc2ccc(Cl)cc2)c2ccccc21 [Example 69] |  | 20 |  |
| O=C1CCN(c2ccccc2)N1Sc1ccc(Cl)cc1 [Example 72] | 10^-6 g/ml |  |  |
| CC1=NN(Sc2ccccc2)C(=O)C1 [Example 74] | 10^-6 g/ml | 52 |  |
| Clc1ccc(Sn2cccn2)cc1 [Example 75] | 3e-06 g/mL |  |  |
| O=c1oc2ccccc2c(=O)n1SC1CCCCC1 [Example 76] | 3e-06 g/mL |  |  |
| c1ccc2c(c1)ncn2SC1CCCCC1 [Example 80, 1-cyclohexylthiobenzimidazole] | 1e-05 g/mL |  |  |
| CCC(C)Sn1cnc2ccccc21 (centres unmarked) [Example 84] | 1e-05 g/mL |  |  |
| CC(Cc1ccc(O)c(O)c1)C(C)Cc1ccc(O)c(O)c1 (centres unmarked) [nordihydroguaiaretic acid] |  |  | activity of known inhibitors of lipoxygenase, in words [1]: either simultaneously active as inhibitors of cyclooxygenase, or only active at very high concentrations |
| O=C1CCN(c2ccccc2)N1 [phenidone] |  |  | activity of known inhibitors of lipoxygenase, in words [1]: either simultaneously active as inhibitors of cyclooxygenase, or only active at very high concentrations |
